# According to patent US10851402B2, “Method for in vitro detection and monitoring of a disease by measuring disease-associated protease activity in extracellular vesicles” (Friedrich-Alexander-Universitaet Erlangen-Nuernberg, priority 2013, dated 2020):
# Assays:
# [1] = system: resting PBMC; experiment: TNFα secretion of resting PBMC after incubation with EV; type: cell-based; conditions: EV-producing cells incubated with the inhibitor; EV incubated with resting PBMC (6 hours)
# Protocol: PBMC stimulation with EV and measurement of Cytokine Secretion. PBMC ([…]) were added to each well of a 96-well-U-bottom plate in a total volume of 200 μl (RPMI). 10 μl of exosome preparation from transfected cells (corresponding to 2×10^6 cells or one 10 cm dish) were added per well and […]. When indicated 10 μl PHA (positive control), 50 μM TAPI-1 (Peptides International), or 10 μM U0126 (MAPK-Inhibitor, Promega) were used. Cytokines in the supernatant (200 μl) were measured via the CBA (Cytometric Bead Array) Human Soluble Protein Flex Set System (BD Biosciences).
# For confirmation we incubated EV with resting PBMC (6 hours) and measured TNFα release.
# [2] = target: T1, TACE (Homo sapiens, UniProt P78536); experiment: GFP-proTNF-RFP cleavage and endogenous TACE activity in Nef/mNAKC transfected 293T cells; type: cell-based; conditions: exposure of cultured 293T cells to TAPI
# T1 construct: endogenous in cells; host or cells: 293T cells transfected with Nef/mNAKC (TACE itself not transfected)
# T1 sequence (P78536 215-824): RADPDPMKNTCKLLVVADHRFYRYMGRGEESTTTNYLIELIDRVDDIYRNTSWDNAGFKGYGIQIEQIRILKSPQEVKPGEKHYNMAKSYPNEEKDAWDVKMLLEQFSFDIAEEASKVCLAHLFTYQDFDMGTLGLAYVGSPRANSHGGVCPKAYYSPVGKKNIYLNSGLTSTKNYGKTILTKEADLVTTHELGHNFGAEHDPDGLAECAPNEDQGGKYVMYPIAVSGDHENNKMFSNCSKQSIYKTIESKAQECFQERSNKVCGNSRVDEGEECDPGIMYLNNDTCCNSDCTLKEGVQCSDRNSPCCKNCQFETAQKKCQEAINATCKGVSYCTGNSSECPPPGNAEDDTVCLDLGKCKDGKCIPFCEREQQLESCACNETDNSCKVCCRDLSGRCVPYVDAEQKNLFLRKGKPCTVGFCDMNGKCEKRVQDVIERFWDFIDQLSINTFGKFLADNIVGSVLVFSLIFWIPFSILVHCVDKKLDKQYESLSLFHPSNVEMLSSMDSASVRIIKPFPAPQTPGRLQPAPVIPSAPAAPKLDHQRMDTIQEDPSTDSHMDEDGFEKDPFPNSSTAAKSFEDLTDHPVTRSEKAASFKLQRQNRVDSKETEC
# Protocol: Transfections into 293T cells and protein assays. Transient transfections into 293T cells as well as immunoprecipitations and immunoblots were performed as described previously (Baur et al., 1997; Witte et al., 2004; Wolf et al., 2008). In general 20 μg of cellular protein lysate and 10 μg of EV lysate were loaded per lane. The latter corresponded to the secretion from 2-4 mio 293T cells within 48 h. Endogenous TACE activity was measured using SensoLyte®520 TACE (α-Secretase) Activity Assay Kit from AnaSpec, according to the manufacturer's procedures. Cell lysates were generated from 293T cells 24 h after tranfection of Nef/mNAKC. […]
# While TACE seemed to be activated by Nef/mNAKC, it was not clear whether and where the protease was functionally active. […] We constructed a GFP-proTNF-RFP fusion protein (G-proTNF-R; FIG. 5A), expecting that the full-length protein would give a yellow signal, which upon TACE-mediated cleavage would mature into prodomain-associated green (GFP) and TNFα-associated red (RFP) fluorescence. […]
# In 293T cells the transfected G-proTNF-R construct gave a double positive (GFP/RFP) signal in FACS and a yellow staining in confocal images (FIGS. 5B and E). […] In addition, we measured an increased activity of endogenous TACE in Nef/mNAKC transfected 293T cells using a commercial, substrate-based activity assay (FIG. 20B). […]
effect of Nef/mNAKC and TACE on G-proTNF-R cleavage and endogenous TACE activity [2],SMILES,TNFα release [1]
–,N#CC(=C(/N)Sc1ccccc1N)/C(C#N)=C(\N)Sc1ccccc1N [U0126],significantly reduced
reversed,CC(C)C[C@H](CC(=O)NO)C(=O)N[C@@H](Cc1ccc2ccccc2c1)C(=O)N[C@@H](C)C(=O)NCCN [TAPI],significantly reduced
–,Oc1ccc2ccccc2c1SSc1c(O)ccc2ccccc12 [IPA-3],significantly reduced
